Experiments:
[1] = Solubility of compounds of formula (I) in different solvents (Example A); assay type: physicochemical; details: for in the fridge (precipitation): about 4° C. over night; for solubility @ RT: weight % of compound
Description: Into a 20 ml vial 0.4 g of 2-methyl-1-(2-(5-(p-tolyl)-1H-imidazol-2-yl)piperidin-1-yl)butan-1-one (white solid) have been added followed by the addition of 1.6 g of the respective solvent as indicated in Table 1 below. The vial was warmed to about 50° C. with gentle agitation for 1 hour. If 2-methyl-1-(2-(5-(p-tolyl)-1H-imidazol-2-yl)piperidin-1-yl)butan-1-one hasn't dissolved, 2 g of the respective solvent was added (resulting in a composition comprising 10 weight % of a compound of formula (I)), and again gentle agitated for an additional hour at about 50° C. If 2-methyl-1-(2-(5-(p-tolyl)-1H-imidazol-2-yl)piperidin-1-yl)butan-1-one still hasn't dissolved, 4 g of the respective solvent was added (resulting in a composition comprising 5 weight % of a compound of formula (I)), and again gentle agitated for an additional hour at about 50° C.
If 2-methyl-1-(2-(5-(p-tolyl)-1H-imidazol-2-yl)piperidin-1-yl)butan-1-one has dissolved, the vial was removed from the heat and was allowed to cool to room temperature. If no precipitation was observed the vials haven been placed in the fridge (about 4° C.) over night.
If 2-methyl-1-(2-(5-(p-tolyl)-1H-imidazol-2-yl)piperidin-1-yl)butan-1-one still has not dissolved, the procedure above has been repeated, starting with 0.05 g of 2-methyl-1-(2-(5-(p-tolyl)-1H-imidazol-2-yl)piperidin-1-yl)butan-1-one and 0.95 g of the respective solvent as indicated in Table 1 below. If still not dissolved, 1 g of the respective solvent was added (resulting in a composition comprising 2.5 weight % of a compound of formula (I))). If still not dissolved further solvent was added.

[2] = Stability of the solutions over time at different temperature (Example B); assay type: physicochemical
Description: The compound of Formula 1 was 2-methyl-1-(2-(5-(p-tolyl)-1H-imidazol-2-yl)piperidin-1-yl)butan-1-one (hereinafter “the compound”). The testing procedure with a number of different solvents was as follows: • 1. To 0.4 g compound was added 1.6 g solvent. This corresponds to a 20% solution. • 2. This mixture was warmed to 50° C. and agitated for 1 hour. • 3. If the compound dissolved, the solution was allowed to cool to room temperature, and then if it remained clear, it was stored overnight at 4° C. • 4. If crystals had developed, a further 2 g solvent was added (this now corresponding to a 10% solution) and step 2 were performed. • 5. The observations and actions of step 3 were performed. • 6. If the 10% combination of step 4 was not a solution, a further 4 g solvent was added (this now corresponding to a 5% solution), and step 2 were performed. • 7. The observations and actions of step 3 were performed. If crystals had developed, any such solvent was considered unsuitable Any solvent in which the compound was not crystallising at a 20 weight % solution, the testing procedure was repeated with a higher concentration as follows: • 1. To 1 g compound was added 1 g solvent. This corresponds to a 50% solution. • 2. This mixture was warmed to 50° C. and agitated for 1 hour. • 3. If the compound dissolved, the solution was allowed to cool to room temperature, and then if it remained clear, it was stored overnight at 4° C. • 4. If crystals had developed, a further 0.5 g solvent was added (this now corresponding to a 40% solution) and step 2 were performed. • 5. The observations and actions of step 3 were performed. • 6. If the 40% combination of step 4 was not a solution, a further 0.83 g solvent was added (this now corresponding to a 30% solution), and step 2 were performed. • 7. The observations and actions of step 3 were performed.

- in the fridge (precipitation) ([1]; solvent Butyl lactate, 10% solution): no crystals observed
- solubility @ RT ([1]; solvent Butyl lactate, dissolved at about 50° C., cooled to room temperature): 10%
- in the fridge (precipitation) ([1]; solvent Ethanol abs., 20% solution): no crystals observed
- solubility @ RT ([1]; solvent Ethanol abs., dissolved at about 50° C., cooled to room temperature): 20%
- in the fridge (precipitation) ([1]; solvent Ethyl lactate, 10% solution): no crystals observed
- solubility @ RT ([1]; solvent Ethyl lactate, dissolved at about 50° C., cooled to room temperature): 10%
- in the fridge (precipitation) ([1]; solvent Isopropyl alcohol, 10% solution): no crystals observed
- solubility @ RT ([1]; solvent Isopropyl alcohol, dissolved at about 50° C., cooled to room temperature): 10%
- in the fridge (precipitation) ([1]; solvent Isopropylidene glycerol, 10% solution): no crystals observed
- solubility @ RT ([1]; solvent Isopropylidene glycerol, dissolved at about 50° C., cooled to room temperature): 10%
- in the fridge (precipitation) ([1]; solvent L-Lactic acid, purity 86.7 weight %, 20% solution): no crystals observed
- solubility @ RT ([1]; solvent L-Lactic acid, purity 86.7 weight %, dissolved at about 50° C., cooled to room temperature): 20%
- in the fridge (precipitation) ([1]; solvent Propylene glycol, 2.5% solution): no crystals observed
- solubility @ RT ([1]; solvent Propylene glycol, dissolved at about 50° C., cooled to room temperature): 2.5%
- in the fridge (precipitation) ([1]; solvent Triacetin, 1% solution): no crystals observed
- solubility @ RT ([1]; solvent Triacetin, dissolved at about 50° C., cooled to room temperature): 1%
- in the fridge (precipitation) ([1]; solvent Triethyl citrate, 2.5% solution): no crystals observed
- solubility @ RT ([1]; solvent Triethyl citrate, dissolved at about 50° C., cooled to room temperature): 2.5%
- solubility @ RT ([1]; solvent Water dest.): <1% (not soluble)
- in the fridge (precipitation) ([1]; solvent dl-Lactic acid, purity 88 weight %, 20% solution): no crystals observed
- solubility @ RT ([1]; solvent dl-Lactic acid, purity 88 weight %, dissolved at about 50° C., cooled to room temperature): 20%
- stability of a solution, weight % of compound, @ 4° C. Overnight ([2]; solvent Butyl lactate): 20% weight %
- stability of a solution, weight % of compound, @ 4° C. Overnight ([2]; solvent Ethanol abs.): 30% weight %
- stability of a solution, weight % of compound, @ 4° C. Overnight ([2]; solvent Ethyl lactate): 10% weight %
- stability of a solution, weight % of compound, @ 4° C. Overnight ([2]; solvent Isopropyl alcohol): 10% weight %
- stability of a solution, weight % of compound, @ 4° C. Overnight ([2]; solvent Isopropylidene glycerol): 10% weight %
- stability of a solution, weight % of compound, @ 4° C. Overnight ([2]; solvent L-Lactic acid, purity 86.7 weight %): 50% weight %
- stability of a solution, weight % of compound, @ 4° C. Overnight ([2]; solvent dl-Lactic acid, purity 88 weight %): 50% weight %
SMILES: CCC(C)C(=O)N1CCCCC1c1ncc(-c2ccc(C)cc2)[nH]1 (stereo not shown) [2-methyl-1-(2-(5-(p-tolyl)-1H-imidazol-2-yl)piperidin-1-yl)butan-1-one]
